From US4426390A, “Novel β-lactam compounds, process for producing thereof, and use thereof as medicines” (Sanraku-Ocean Co., Ltd., priority 1980, dated 1984)
≈ marks a conversion by molar mass, not a printed value. Like-named read-outs stand apart in the source and are kept apart here.

Columns and labels:
[1] = Stability (half life) in phosphate buffers of various pH; format: physicochemical; conditions: phosphate buffer, pH 4 to 9, 28° C.
Procedure: By adding 2% sodium hydroxide or 10% hydrochloric acid, the pH of 0.05 M phosphate buffer is adjusted to 4, 5, 6, 7, 8 and 9, respectively, and distributed into test tubes in an amount of 3 ml. Concentrated solution of antibiotic OA-6129A (0.05 ml) is added to each test tube and allowed to stand in a thermostatic chamber of 28° C. The time course curve of the concentration decrease of antibiotic OA-6129A is drawn by spectrophotometric measurement at 300 nm, from which the half life of the antibiotic at the indicated pH is calculated. As a control, antibiotic PS-5, a carbapenem compound described in the above-cited reference is simultaneously tested.

ddY mice = conditions: mouse, in vivo, ip, 500 mg/kg
Providencia sp. P8 = test: MIC by agar dilution method; format: cell-based
Procedure: (§1) The MIC is measured by an agar dilution method based on the standard method of the Japanese Society of Chemotherapy (Japanese Society of Chemotherapy: The Revised Method of Determination of MIC Values, Chemotherapy 22, 1126-1128, […]). Specifically, the antibiotic is serially diluted with a 1/50 M phosphate buffer at a pH of 7.3 to prepare a twofold dilution series. One milliliter of each dilution and 9 ml of an agar medium (Heart Infusion Agar; a product of Difco Laboratories) are mixed and allowed to solidify in a Petri dish having a diameter of 9 cm. One loopful of the stock culture of the test microbe is inoculated in trypto-soy buillon (a product of Eiken Kagaku Co., Ltd.) and incubated at 37° C. for 18 hours. The resulting culture broth is diluted to a concentration of about 10^6 cells/ml with physiological saline and inoculated on the agar plate by means of a microplanter.

[2] = system: Staphylococcus aureus 209P; test: MIC by agar dilution method; format: cell-based; conditions: 37° C., 18 hours
Procedure: as §1

P. vulgaris GN76 = test: MIC by agar dilution method; format: cell-based; conditions: Proteus vulgaris, 37° C., 18 hours
Procedure: as §1

P. rettgeri P7 = test: MIC by agar dilution method; format: cell-based; conditions: Providencia rettgeri
Procedure: as §1

[3] = system: Bacillus subtillis ATCC 6633; test: MIC by agar dilution method; format: cell-based; conditions: ATCC6633; Bacillus subtillis ATCC 6633; agar dilution, 37° C., 18 hours; read-out: MIC
Procedure: as §1

Proteus mirabilis P6 = test: MIC by agar dilution method; format: cell-based
Procedure: as §1

Escherichia coli K-12 = test: MIC by agar dilution method; format: cell-based
Procedure: as §1

S. aureus Russell = test: MIC by agar dilution method; format: cell-based; conditions: Staphylococcus aureus
Procedure: as §1

[4] = system: Citrobacter Freundii GN346; test: MIC by agar dilution method; format: cell-based; conditions: 37° C., 18 hours
Procedure: as §1

Ps. aeruginosa NCTC10490 = test: MIC by agar dilution method; format: cell-based; conditions: Pseudomonas aeruginosa, 37° C., 18 hours
Procedure: as §1

Comamonas terrigena B996 = test: MIC by agar dilution method; format: cell-based; conditions: 37° C., 18 hours
Procedure: as §1

P. sp. P22 = test: MIC by agar dilution method; format: cell-based; conditions: 37° C., 18 hours
Procedure: as §1

[5] = system: Pseudomonas aenginosa IFO3445; test: MIC by agar dilution method; format: cell-based; conditions: 37° C., 18 hours
Procedure: as §1

Alcaligenes Faecolis A1 = test: MIC by agar dilution method; format: cell-based
Procedure: as §1

Ent. cloacae 45 = test: MIC by agar dilution method; format: cell-based; conditions: Enterobacter cloacae, 37° C., 18 hours
Procedure: as §1

Serratia marcesceus S18 = test: MIC by agar dilution method; format: cell-based; conditions: 37° C., 18 hours
Procedure: as §1

S. aureus Smith = test: MIC by agar dilution method; format: cell-based; conditions: Staphylococcus aureus, 37° C., 18 hours
Procedure: as §1

Ent. sp. E8 = test: MIC by agar dilution method; format: cell-based
Procedure: as §1

E. coli RGN823 = test: MIC by agar dilution method; format: cell-based; conditions: Escherichia coli, 37° C., 18 hours
Procedure: as §1

S. epidermidis = test: MIC by agar dilution method; format: cell-based; conditions: Staphylococcus epidermidis, 37° C., 18 hours
Procedure: as §1

[6] = system: Klebsiella pneumoniae K13; test: MIC by agar dilution method; format: cell-based; conditions: 37° C., 18 hours
Procedure: as §1

Ser. marcesceus T55 = test: MIC by agar dilution method; format: cell-based; conditions: 37° C., 18 hours
Procedure: as §1

Sarcina lutea S19 = test: MIC by agar dilution method; format: cell-based; conditions: Micrococcus luteus, 37° C., 18 hours
Procedure: as §1

[7] = system: Enterobacter aerogenes E19; test: MIC by agar dilution method; format: cell-based; conditions: Klebsiella aerogenes, 37° C., 18 hours
Procedure: as §1

| SMILES | stability relative to OA-6129A [1] | acute toxicity (ddY mice) | MIC [2] | MIC (P. vulgaris GN76) | MIC [3] | MIC [4] | MIC (Ps. aeruginosa NCTC10490) | MIC (Comamonas terrigena B996) | MIC (P. sp. P22) | MIC [5] | MIC (Ent. cloacae 45) | MIC (Serratia marcesceus S18) | MIC (S. aureus Smith) | MIC (E. coli RGN823) | MIC (S. epidermidis) | MIC [6] | MIC (Ser. marcesceus T55) | MIC (Sarcina lutea S19) | MIC [7] | other results |
| --- | --- | --- | --- | --- | --- | --- | --- | --- | --- | --- | --- | --- | --- | --- | --- | --- | --- | --- | --- | --- |
| CC(O)C1C(=O)N2C(C(=O)O)=C(SCCNC(=O)CCNC(=O)C(O)C(C)(C)CO)CC12 (stereo not shown) [OA-6129B] | substantially the same stability as antibiotic OA-6129A | no acute toxicity is observed |  |  |  |  |  |  |  |  |  |  |  |  |  |  |  |  |  |  |
| CC(OS(=O)(=O)O)[C@@H]1C(=O)N2C(C(=O)O)=C(SCCNC(=O)CCNC(=O)C(O)C(C)(C)CO)C[C@H]12 (relative stereo) [OA-6129C] | substantially the same stability as antibiotic OA-6129A | no acute toxicity is observed | 0.1 µg/mL (≈ 0.181 µM) | 1.56 µg/mL (≈ 2.82 µM) | 0.1 µg/mL (≈ 0.181 µM) | 50 µg/mL (≈ 90.3 µM) | > 50 µg/mL | 0.1 µg/mL (≈ 0.181 µM) | 0.78 µg/mL (≈ 1.41 µM) | 50 µg/mL (≈ 90.3 µM) | 50 µg/mL (≈ 90.3 µM) | 12.5 µg/mL (≈ 22.6 µM) | 0.78 µg/mL (≈ 1.41 µM) | 0.39 µg/mL (≈ 0.704 µM) | 3.13 µg/mL (≈ 5.65 µM) | 12.5 µg/mL (≈ 22.6 µM) | 12.5 µg/mL (≈ 22.6 µM) | 0.78 µg/mL (≈ 1.41 µM) | 6.25 µg/mL (≈ 11.3 µM) | MIC (Providencia sp. P8; Providencia sp. P8, agar dilution, 37° C., 18 hours, read-out: MIC): 0.2 µg/mL (≈ 0.361 µM); MIC (P. rettgeri P7; P. rettgeri P7, agar dilution, 37° C., 18 hours, read-out: MIC): 0.2 µg/mL (≈ 0.361 µM); MIC (Proteus mirabilis P6; Proteus mirabilis P6, agar dilution, 37° C., 18 hours, read-out: MIC): 0.78 µg/mL (≈ 1.41 µM); MIC (Escherichia coli K-12; K12, Escherichia coli K-12, agar dilution, 37° C., 18 hours, read-out: MIC): 0.78 µg/mL (≈ 1.41 µM); MIC (S. aureus Russell; 18 h): 3.13 µg/mL (≈ 5.65 µM); MIC (Alcaligenes Faecolis A1; Alcaligenes Faecolis A1, agar dilution, 37° C., 18 hours, read-out: MIC): 0.39 µg/mL (≈ 0.704 µM); MIC (Ent. sp. E8; Ent. sp. E8, agar dilution, 37° C., 18 hours, read-out: MIC): 1.56 µg/mL (≈ 2.82 µM) |
| Cc1nnc(SCC2=C(C(=O)O)N3C(=O)[C@@H](NC(=O)Cn4cnnn4)[C@H]3SC2)s1 [CEZ, reference compound] |  |  | 0.1 µg/mL (≈ 0.22 µM) | > 400 µg/mL | 0.1 µg/mL (≈ 0.22 µM) | > 400 µg/mL | > 400 µg/mL | 0.05 µg/mL (≈ 0.11 µM) | > 400 µg/mL | > 400 µg/mL | > 400 µg/mL | > 400 µg/mL | 0.2 µg/mL (≈ 0.44 µM) | 1.56 µg/mL (≈ 3.43 µM) | 0.2 µg/mL (≈ 0.44 µM) | 25 µg/mL (≈ 55 µM) | > 400 µg/mL | 0.39 µg/mL (≈ 0.858 µM) | > 400 µg/mL | MIC (Providencia sp. P8; Providencia, SP.P8, 18 h): 1.56 µg/mL (≈ 3.43 µM); MIC (P. rettgeri P7; P7, 18 h): 3.13 µg/mL (≈ 6.89 µM); MIC (Proteus mirabilis P6; Proteus mirabilis, P6, 18 h): 3.13 µg/mL (≈ 6.89 µM); MIC (Escherichia coli K-12; Escherichia coli, K12, 18 h): 0.78 µg/mL (≈ 1.72 µM); MIC (S. aureus Russell; S. aureus Russell, agar dilution, 37° C., 18 hours, read-out: MIC): 0.2 µg/mL (≈ 0.44 µM); MIC (Alcaligenes Faecolis A1; Alcaligenes, 18 h): 3.13 µg/mL (≈ 6.89 µM); MIC (Ent. sp. E8; 18 h): 3.13 µg/mL (≈ 6.89 µM) |
